Test results published in article PMC5520057, “Modulation of nongenomic activation of PI3K signalling by tetramerization of N-terminally-cleaved RXRα” (Nature Communications, 2017).

Experiments:
tRXRα/F313A = experiment: BS3 crosslinking, tRXRα/F313A; type: cell-based; settings: MCF-7 cells, 9-cis-RA (10^−7 M) or K-80003 (5 × 10^−6 M) for 6 h
Procedure: (§1) Cell lysates were then prepared and incubated with bis[sulfosuccinimidyl] suberate (BS3, Pierce) dissolved in dimethyl sulfoxide to a final concentration of 1 mM. The reactions were stopped with protein gel loading buffer. Samples were resolved by SDS/PAGE in 8% acrylamide gels and protein bands were visualized by western blotting.

RXRα-LBD [1] = target: T1, RXRα-LBD (Homo sapiens, UniProt P19793); experiment: Gel filtration chromatography, RXRα-LBD; type: biochemical; settings: HiLoad 16/600 Superdex 200 pg, 50 mM Tris-Cl (pH 7.4), 200 mM NaCl, 1 ml min^−1; 2 h incubation; one of three similar experiments
T1 construct: The human RXRα LBD (residues Thr223 to Thr462); made in house; host or cells: Escherichia coli BL21
T1 sequence (P19793 223-462): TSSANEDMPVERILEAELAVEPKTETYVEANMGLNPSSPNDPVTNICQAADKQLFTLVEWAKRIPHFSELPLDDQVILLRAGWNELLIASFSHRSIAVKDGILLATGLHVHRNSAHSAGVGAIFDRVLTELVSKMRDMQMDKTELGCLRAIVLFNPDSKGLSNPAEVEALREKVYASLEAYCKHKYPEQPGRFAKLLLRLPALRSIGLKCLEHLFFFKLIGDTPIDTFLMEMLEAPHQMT
Procedure: (§2) The human RXRα LBD (residues Thr223 to Thr462) cloned as an N-terminal histidine-tagged fusion protein in pET15b expression vector was expressed in Escherichia coli BL21 strain (Stratagene). After sonication, cell extract was incubated with the His60 Ni Superflow resin, and His-tagged RXRα-LBD-resin complexes were washed, eluted and concentrated to 5 mg ml^−1 for subsequent trails. For crystallization experiment, bovine thrombin (Sigma) was used to cleave the His tag from the purified His-tagged RXRα-LBD. The resulting His tag was removed on the Resource-Q column (GE) using 0.1–1 M NaCl gradient and the Tris-Cl pH 8 buffer. RXRα-LDB was further purified using gel filtration on a Superdex 200 2660 column (GE) pre-equilibrated with the 75 mM NaCl, 20 mM Tris-Cl buffer (pH 8).

RXRα = experiment: BS3 crosslinking, transfected full-length RXRα; type: cell-based; settings: HepG2 cells; K-80003 (5 × 10^−6 M) for 6 h; BS3 1 mM; western blotting
Procedure: as §1

tRXRα = experiment: BS3 crosslinking, transfected tRXRα; type: cell-based
Procedure: as §1

RXRα-LBD/F439A = experiment: Non-denaturing gel electrophoresis, F439A mutant; type: biochemical, human; settings: K-80003 (20 μM), 3 h at 4 °C
Procedure: as §2

[2] = test system: p85α / tRXRα/F313A interaction; experiment: coIP, p85α with tRXRα/F313A; type: cell-based; settings: HEK293T cells; K-80003 (5 × 10^−6 M) for 6 h; coIP anti-HA
Procedure: (§3) For coIP assay[29], HEK293T cells grown in 10 cm dishes were transfected with various plasmids. Cells were lysed in 1 ml of lysis buffer (20 mM Tris (pH 7.5), 150 mM NaCl, 1% Triton X-100, 1 mM EDTA, 30 mM NaF, 2 mM sodium pyrophosphate) with a cocktail of proteinase inhibitors (Roche). Lysates were incubated with the appropriate antibody for 12 h at 4 °C and subsequently incubated with protein A-Sepharose beads for 1 h. The immunoprecipitates were collected and washed three times with lysis buffer. The protein–antibody complexes recovered on beads were subjected to immunoblotting using appropriate antibodies after separation by SDS-PAGE. Input represents 5% of cell lysates used for coIP assays.

p85α / tRXRα interaction = experiment: coIP, p85α with tRXRα; type: cell-based; settings: conclusion from structure and crosslinking
Procedure: as §3

RXRα-LBD/L433D [3] = experiment: Non-denaturing gel electrophoresis, L433D mutant; type: biochemical, human; settings: K-80003 (20 μM), 3 h at 4 °C
Procedure: as §2

tRXRα/R316E = experiment: BS3 crosslinking, tRXRα/R316E; type: cell-based; settings: MCF-7 cells, 9-cis-RA (10^−7 M) or K-80003 (5 × 10^−6 M) for 6 h
Procedure: as §1

RXRα-LBD/L433D [4] = experiment: ITC, RXRα-LBD/L433D mutant; type: binding, human; settings: 25 °C, protein 50 μM, pH 7.5, compound 1 mM
Procedure: as §2
Binding of compounds to RXRα-LBD or mutant was studied in […] at 25 °C using isothermal titration calorimetry (ITC) assay that measures the heat either released or absorbed during binding. The purified His-tagged RXRα-LBD or mutant protein (50 μM in 25 mM Tris-HCl, pH 7.5, 150 mM NaCl, 0.1% DMSO) was placed in the sample cell of MicroCal VP-ITC titration calorimeter. The compounds to be studied were diluted to a concentration of 1 mM in the same buffer. All solutions were degassed before the titrations. […] Calorimetric data were analysed using MicroCal Origin software (version 7.0).

RXRα-LBD [5] = experiment: BS3 crosslinking, transfected RXRα-LBD; type: cell-based; settings: HepG2 cells; 9-cis-RA (10^−7 M) or K-80003 (5 × 10^−6 M) for 6 h; BS3 1 mM; western blotting
Procedure: as §1

RXRα-LBD [6] = target: T1, RXRα-LBD; experiment: Crystal structure of RXRα-LBD complex; type: binding; settings: crystal structure at 2.6 Å, PDB 5TBP
Procedure: as §2
Crystallization conditions were initially determined using the sitting-drop vapor-diffusion method and the crystallization screens Index and PEG-Ion solutions from Hampton Research. Final crystals were obtained by cocrystallizing the protein and the ligand. The protein-ligand complex contained 0.35 mM of RXRα-LBD, 0.5–0.7 mM of a ligand, 1% DMSO, 100 mM NaCl and 20 mM Tris-Cl buffer (pH 7.6). 0.2 μl of the protein-ligand complex was mixed with 0.2 μl of the well solution (20% […] and 0.2 M Na Acetate) and incubated at 20 °C. Crystals appeared in 5–10 days and grew into 0.2 × 0.1 × 0.1 mm prisms. The crystals were flash-cooled in mother liquor containing 1.5 mM of K-80003 and 20% glycerol as a cryoprotectant. Diffraction data was collected from the cryo-cooled crystal (100 K) on an in-house diffractometer (Rigaku X-ray generator with a rotating anode, VariMax optic and R-AXIS HTC detector). Data was processed using the programme iMOSFLM, part of the CCP4 suite. The b-factor of the data set according to the Wilson plot was 60 Å^2.
The crystal structures were determined using the molecular replacement program Phaser[76] with pdb entry 4N8R as an initial model. Coot[77] and the program suite Phenix[78] were used for the model rebuilding and refinement. […]

For CC1=C(CC(=O)O)c2cc(F)ccc2/C1=C\c1ccc(C(C)C)cc1 [K-80003], the “oligomeric state of tRXRα/F313A” value (tRXRα/F313A) was “strong tetrameric species of tRXRα/R316E but not tRXRα/F313A independent of the presence of 9-cis-RA or K-80003”, the “oligomeric state of RXRα-LBD by gel filtration” value (RXRα-LBD [1]) was “mainly existed as a tetramer” and the “tetramerization of full-length RXRα” value (RXRα) was “failed to promote the tetramerization of the full-length RXRα”. For the same molecule, the “tetramerization of tRXRα with cotransfected RXRα A/B domain” value (tRXRα; HEK293T cells, tRXRα together with RXRα-A/B, K-80003, BS3, one of three similar experiments) was “completely suppressed the effect of K-80003 on promoting tRXRα tetramerization”, the “tetramerization of tRXRα” value (tRXRα; HepG2 cells, K-80003 (5 × 10^−6 M) for 6 h, BS3 1 mM, western blotting) was “effectively promoted the formation of tRXRα tetramers” and the “effect on tetramerization of F439A mutant” value (RXRα-LBD/F439A) was “impaired the tetramerization of respective mutants by K-80003”. For the same molecule, the “modulation of tRXRα/F313A interaction with p85α” value [2] was “failed to modulate the interaction of both mutants with p85α”, the “inhibition of tRXRα interaction with p85α” value (p85α / tRXRα interaction) was “inhibits tRXRα interaction with p85α by promoting tRXRα tetramerization” and the “effect on tetramerization of RXRα-LBD/L433D” value (RXRα-LBD/L433D [3]) was “failed to bind to RXRα-LBD/L433D (Supplementary Fig. 5a) and promote its tetramerization”. For the same molecule, the “oligomeric state of tRXRα/R316E” value (tRXRα/R316E) was “strong tetrameric species of tRXRα/R316E but not tRXRα/F313A independent of the presence of 9-cis-RA or K-80003”, the “binding to RXRα-LBD/L433D” value (RXRα-LBD/L433D [4]) was “failed to bind to RXRα-LBD/L433D” and the “crosslinked RXRα-LBD species” value (RXRα-LBD [5]) was “crosslinked species on SDS-PAGE gels of 25, 50 and 100 kDa, corresponding to monomer, dimer and tetramer of RXRα-LBD”. For the same molecule, the binding mode (RXRα-LBD [6]) was “‘3-pronged’ binding mode”, the “molecules bound per tetramer” value (RXRα-LBD [6]) was “six molecules of K-80003-bound per tetramer” and the “molecules bound per interfacial cavity” value (RXRα-LBD [6]; A1/B2 or A2/B1 cavity) was “three molecules per A1/B2 or A2/B1 interfacial cavity”.
